Like-named read-outs stand apart in the source and are kept apart here. Non-standard residues stand in square brackets, D forms with d. Residues, ends and D or L forms follow the SMILES beside them. *: point of attachment. Lys(Me2) = CN(C)CCCC[C@H](N)C(=O)O; Octanoyl = CCCCCCCC(=O)*
Key:
E. coli ATCC 25922 = format: cell-based, Escherichia coli; conditions: ATCC 25922, 18 h
Summary of the method: (§1)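 Turbidity at 590 nm defined growth, from which the MIC was taken. Cultures at a final density of 5 × 10^5 CFU/mL were exposed to a range of compound levels at 37 °C for 18 h in a CLSI-based microdilution format.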

MRSA ATCC 33592 = format: cell-based, Staphylococcus aureus; conditions: ATCC 33592, 18 h
Summary of the method: as §1

S. aureus ATCC 29213 = format: cell-based, Staphylococcus aureus; conditions: ATCC 29213, 18 h
Summary of the method: as §1

E. faecalis ATCC 29212 = format: cell-based, Enterococcus faecalis; conditions: ATCC 29212, 18 h
Summary of the method: as §1

E. coli 94393 = assay: microbe, parasite or virus in culture; format: cell-based, Escherichia coli; conditions: 94393, 18 h
Summary of the method: as §1

E. coli 94474 = assay: microbe, parasite or virus in culture; format: cell-based, Escherichia coli; conditions: 94474, 18 h
Summary of the method: as §1

[1] = system: P. aeruginosa PA259-96196; format: cell-based, Pseudomonas aeruginosa; conditions: for MICUTBLP: UTBLP alone
Summary of the method: (§2)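 Values derive from a two-agent checkerboard with an 18 h, 37 °C incubation. FICI cut-offs: ≤0.5 synergy, 0.5–4 additive, >4 antagonism.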

P. aeruginosa PAO1 = format: cell-based, Pseudomonas aeruginosa; conditions: for MICUTBLP: UTBLP alone
Summary of the method: as §2

A. baumannii 92247 = format: cell-based, Acinetobacter baumannii; conditions: for MICUTBLP: UTBLP alone
Summary of the method: as §2

A. baumannii AB027 = format: cell-based, Acinetobacter baumannii; conditions: for MICUTBLP: UTBLP alone
Summary of the method: as §2

A. baumannii ATCC 17978 = format: cell-based, Acinetobacter baumannii; conditions: for MICUTBLP: UTBLP alone
Summary of the method: as §2

E. cloacae 118564 = format: cell-based, Enterobacter cloacae; conditions: for MICUTBLP: UTBLP alone
Summary of the method: as §2

K. pneumoniae 113250 = format: cell-based, Klebsiella pneumoniae; conditions: for MICUTBLP: UTBLP alone
Summary of the method: as §2

MRSE 61589 = format: cell-based, Staphylococcus epidermidis
Summary of the method: as §2

MSSE 81388 = format: cell-based, Staphylococcus epidermidis
Summary of the method: as §2

E. faecium ATCC 27270 = format: cell-based, Enterococcus faecium
Summary of the method: as §2

[2] = UTBLP in combination with novobiocin
[3] = UTBLP in combination with rifampicin
[4] = novobiocin in combination with the UTBLP
[5] = rifampicin in combination with the UTBLP
[6] = UTBLP in combination with chloramphenicol
[7] = UTBLP in combination with niclosamide
[8] = chloramphenicol in combination with the UTBLP
[9] = niclosamide in combination with the UTBLP
[10] = UTBLP alone, plate with chloramphenicol

CCCCCCCC(=O)NCCCC[C@H](NC(=O)CCCCCCC)C(=O)N[C@@H](CCCCN(C)C)C(=O)N[C@@H](CCCCN(C)C)C(=O)N[C@@H](CCCCN(C)C)C(=O)N[C@@H](CCCCN(C)C)C(N)=O [UTBLP 7] (Octanoyl-K(Octanoyl)[Lys(Me2)][Lys(Me2)][Lys(Me2)][Lys(Me2)]-NH2)
4 µg/mL: MICantibiotic [MICcombo] (P. aeruginosa PAO1; [5]) | MICUTBLP [MICcombo] (A. baumannii AB027; [2]) | MICUTBLP [MICcombo] (A. baumannii ATCC 17978; [7]) | MICUTBLP [MICcombo] (A. baumannii ATCC 17978; [2]) | MICUTBLP [MICcombo] (A. baumannii ATCC 17978; [3]) | MICantibiotic [MICcombo] (A. baumannii ATCC 17978; [9]) | MICantibiotic [MICcombo] (E. cloacae 118564; [4]) | MICchloramphenicol [MICcombo] (MSSE 81388; [8]) | MICchloramphenicol [MICcombo] (E. faecium ATCC 27270; [8])
32 µg/mL: MICUTBLP (A. baumannii 92247; plate with novobiocin) | MICUTBLP (A. baumannii 92247; plate with rifampicin) | MICUTBLP (MRSE 61589; [10]) | MICUTBLP (MSSE 81388; [10])
2 µg/mL: MICantibiotic [MICcombo] (K. pneumoniae 113250; [5])
Synergy (FICI ≤ 0.5 is synergistic): Interpretation (P. aeruginosa PAO1; UTBLP + novobiocin) | Interpretation (A. baumannii 92247; UTBLP + novobiocin) | Interpretation (A. baumannii 92247; UTBLP + rifampicin) | Interpretation (A. baumannii AB027; UTBLP + novobiocin) | Interpretation (A. baumannii AB027; UTBLP + rifampicin) | Interpretation (A. baumannii ATCC 17978; UTBLP + niclosamide) | Interpretation (A. baumannii ATCC 17978; UTBLP + novobiocin) | Interpretation (A. baumannii ATCC 17978; UTBLP + rifampicin) | Interpretation (E. cloacae 118564; UTBLP + novobiocin) | Interpretation (E. cloacae 118564; UTBLP + rifampicin) | Interpretation (K. pneumoniae 113250; UTBLP + novobiocin) | Interpretation (K. pneumoniae 113250; UTBLP + rifampicin)
1024 µg/mL: MICantibiotic [MICcombo] (P. aeruginosa PAO1; [9])
8 µg/mL: MICantibiotic [MICcombo] [1, 5] | MICUTBLP [MICcombo] (P. aeruginosa PAO1; [6]) | MICantibiotic [MICcombo] (P. aeruginosa PAO1; [8]) | MICUTBLP [MICcombo] (A. baumannii 92247; [3]) | MICUTBLP [MICcombo] (A. baumannii AB027; [3]) | MICUTBLP [MICcombo] (K. pneumoniae 113250; [2]) | MICantibiotic [MICcombo] (K. pneumoniae 113250; [4]) | MICchloramphenicol [MICcombo] (MRSE 61589; [8])
0.5 µg/mL: MICantibiotic [MICcombo] (A. baumannii AB027; [4]) | MICantibiotic [MICcombo] (A. baumannii ATCC 17978; [4])
512 µg/mL: MICantibiotic [MICcombo] [1, 4]
64 µg/mL: MIC (E. coli ATCC 25922) | MIC (E. faecalis ATCC 29212) | MIC (E. coli 94393) | MICantibiotic [MICcombo] (A. baumannii ATCC 17978; [8])
0.25 µg/mL: MICUTBLP [MICcombo] (P. aeruginosa PAO1; [7]) | MICantibiotic [MICcombo] (A. baumannii 92247; [4]) | MICUTBLP [MICcombo] (A. baumannii ATCC 17978; [6]) | MICUTBLP [MICcombo] (MRSE 61589; [6]) | MICUTBLP [MICcombo] (MSSE 81388; [6]) | MICUTBLP [MICcombo] (E. faecium ATCC 27270; [6])
0.125 µg/mL: MICantibiotic [MICcombo] (A. baumannii 92247; [5]) | MICantibiotic [MICcombo] (A. baumannii ATCC 17978; [5])
1 µg/mL: MICUTBLP [MICcombo] (A. baumannii 92247; [2]) | MICantibiotic [MICcombo] (E. cloacae 118564; [5])
>128 µg/mL: MIC (MRSA ATCC 33592) | MIC (S. aureus ATCC 29213)
Additive (0.5 < x ≤ 4 is additive): Interpretation ([1]; UTBLP + novobiocin) | Interpretation ([1]; UTBLP + rifampicin) | Interpretation (P. aeruginosa PAO1; UTBLP + chloramphenicol) | Interpretation (P. aeruginosa PAO1; UTBLP + niclosamide) | Interpretation (P. aeruginosa PAO1; UTBLP + rifampicin) | Interpretation (A. baumannii ATCC 17978; UTBLP + chloramphenicol) | Interpretation (MRSE 61589; UTBLP + chloramphenicol) | Interpretation (MSSE 81388; UTBLP + chloramphenicol) | Interpretation (E. faecium ATCC 27270; UTBLP + chloramphenicol)
> 128 µg/mL: MICUTBLP ([1]; plate with novobiocin) | MICUTBLP ([1]; plate with rifampicin) | MICUTBLP (P. aeruginosa PAO1; plate with chloramphenicol) | MICUTBLP (P. aeruginosa PAO1; plate with niclosamide) | MICUTBLP (P. aeruginosa PAO1; plate with novobiocin) | MICUTBLP (P. aeruginosa PAO1; plate with rifampicin) | MICUTBLP (E. cloacae 118564; plate with novobiocin) | MICUTBLP (E. cloacae 118564; plate with rifampicin) | MICUTBLP (K. pneumoniae 113250; plate with novobiocin) | MICUTBLP (K. pneumoniae 113250; plate with rifampicin)
0.063 µg/mL: MICantibiotic [MICcombo] (A. baumannii AB027; [5])
128 µg/mL: MIC (E. coli 94474) | MICantibiotic [MICcombo] (P. aeruginosa PAO1; [4]) | MICUTBLP (A. baumannii AB027; plate with novobiocin) | MICUTBLP (A. baumannii AB027; plate with rifampicin) | MICUTBLP (A. baumannii ATCC 17978; plate with chloramphenicol) | MICUTBLP (A. baumannii ATCC 17978; plate with niclosamide) | MICUTBLP (A. baumannii ATCC 17978; plate with novobiocin) | MICUTBLP (A. baumannii ATCC 17978; plate with rifampicin) | MICUTBLP (E. faecium ATCC 27270; [10])
16 µg/mL: MICUTBLP [MICcombo] [1, 2] | MICUTBLP [MICcombo] [1, 3] | MICUTBLP [MICcombo] (P. aeruginosa PAO1; [2]) | MICUTBLP [MICcombo] (P. aeruginosa PAO1; [3]) | MICUTBLP [MICcombo] (E. cloacae 118564; [2]) | MICUTBLP [MICcombo] (E. cloacae 118564; [3]) | MICUTBLP [MICcombo] (K. pneumoniae 113250; [3])
